Tests used:
Assay in all cases: radiometric filter-binding kinase assay, Kinase HotSpot
Details in all cases: compound 0.5 µM; ATP 10 µM
[1] = biological target: EPHA4 (human) (UniProt P54764)
[2] = biological target: TSSK2 (human) (UniProt Q96PF2)
[3] = biological target: MAP2K2 (human) (UniProt P36507)
[4] = biological target: ABL1 (human) (UniProt P00519)
[5] = biological target: SRC (human) (UniProt P12931)
[6] = biological target: MAP3K10 (human) (UniProt Q02779)
[7] = biological target: FGFR2 (human) (UniProt P21802)
[8] = biological target: CDK6 CCND1 (human) (UniProt Q00534+P24385)
[9] = biological target: BRSK2 (human) (UniProt Q8IWQ3)
[10] = biological target: FYN (human) (UniProt P06241)
[11] = biological target: TAOK2 (human) (UniProt Q9UL54)
[12] = biological target: CLK1 (human) (UniProt P49759)
[13] = biological target: TEC (human) (UniProt P42680)
[14] = biological target: CSF1R (human) (UniProt P07333)
[15] = biological target: MAP3K2 (human) (UniProt Q9Y2U5)
[16] = biological target: RPS6KA5 KD2 (human) (UniProt O75582)
[17] = biological target: CAMK1G (human) (UniProt Q96NX5)
[18] = biological target: MAP4K5 (human) (UniProt Q9Y4K4)
[19] = biological target: CDK6 CCND3 (human) (UniProt P30281+Q00534)
[20] = biological target: SLK (human) (UniProt Q9H2G2)
[21] = biological target: PTK6 (human) (UniProt Q13882)
[22] = biological target: PLK2 (human) (UniProt Q9NYY3)
[23] = biological target: WNK2 (human) (UniProt Q9Y3S1)
[24] = biological target: DYRK1A (human) (UniProt Q13627)
[25] = biological target: CDK7 CCNH MNAT1 (human) (UniProt P50613+P51948+P51946)
[26] = biological target: MERTK (human) (UniProt Q12866)
[27] = biological target: RPS6KA4 KD2 (human) (UniProt O75676)
[28] = biological target: ACVRL1 (human) (UniProt P37023)
[29] = biological target: EPHB4 (human) (UniProt P54760)
[30] = biological target: NEK11 (human) (UniProt Q8NG66)
[31] = biological target: RPS6KA2 KD1 KD2 (human) (UniProt Q15349)
[32] = biological target: CDK9 CCNK (human) (UniProt O75909+P50750)
[33] = biological target: CAMK2G (human) (UniProt Q13555)
[34] = biological target: NEK4 (human) (UniProt P51957)
[35] = biological target: HIPK1 (human) (UniProt Q86Z02)
[36] = biological target: PTK2B (human) (UniProt Q14289)
[37] = biological target: CSNK1A1 (human) (UniProt P48729)
[38] = biological target: GSK3A (human) (UniProt P49840)
[39] = biological target: CDK3 CCNE1 (human) (UniProt Q00526+P24864)
[40] = biological target: CAMK2D (human) (UniProt Q13557)
[41] = biological target: SRMS (human) (UniProt Q9H3Y6)

Chain of WNK2 (human) (Q9Y3S1 whole entry, looked up): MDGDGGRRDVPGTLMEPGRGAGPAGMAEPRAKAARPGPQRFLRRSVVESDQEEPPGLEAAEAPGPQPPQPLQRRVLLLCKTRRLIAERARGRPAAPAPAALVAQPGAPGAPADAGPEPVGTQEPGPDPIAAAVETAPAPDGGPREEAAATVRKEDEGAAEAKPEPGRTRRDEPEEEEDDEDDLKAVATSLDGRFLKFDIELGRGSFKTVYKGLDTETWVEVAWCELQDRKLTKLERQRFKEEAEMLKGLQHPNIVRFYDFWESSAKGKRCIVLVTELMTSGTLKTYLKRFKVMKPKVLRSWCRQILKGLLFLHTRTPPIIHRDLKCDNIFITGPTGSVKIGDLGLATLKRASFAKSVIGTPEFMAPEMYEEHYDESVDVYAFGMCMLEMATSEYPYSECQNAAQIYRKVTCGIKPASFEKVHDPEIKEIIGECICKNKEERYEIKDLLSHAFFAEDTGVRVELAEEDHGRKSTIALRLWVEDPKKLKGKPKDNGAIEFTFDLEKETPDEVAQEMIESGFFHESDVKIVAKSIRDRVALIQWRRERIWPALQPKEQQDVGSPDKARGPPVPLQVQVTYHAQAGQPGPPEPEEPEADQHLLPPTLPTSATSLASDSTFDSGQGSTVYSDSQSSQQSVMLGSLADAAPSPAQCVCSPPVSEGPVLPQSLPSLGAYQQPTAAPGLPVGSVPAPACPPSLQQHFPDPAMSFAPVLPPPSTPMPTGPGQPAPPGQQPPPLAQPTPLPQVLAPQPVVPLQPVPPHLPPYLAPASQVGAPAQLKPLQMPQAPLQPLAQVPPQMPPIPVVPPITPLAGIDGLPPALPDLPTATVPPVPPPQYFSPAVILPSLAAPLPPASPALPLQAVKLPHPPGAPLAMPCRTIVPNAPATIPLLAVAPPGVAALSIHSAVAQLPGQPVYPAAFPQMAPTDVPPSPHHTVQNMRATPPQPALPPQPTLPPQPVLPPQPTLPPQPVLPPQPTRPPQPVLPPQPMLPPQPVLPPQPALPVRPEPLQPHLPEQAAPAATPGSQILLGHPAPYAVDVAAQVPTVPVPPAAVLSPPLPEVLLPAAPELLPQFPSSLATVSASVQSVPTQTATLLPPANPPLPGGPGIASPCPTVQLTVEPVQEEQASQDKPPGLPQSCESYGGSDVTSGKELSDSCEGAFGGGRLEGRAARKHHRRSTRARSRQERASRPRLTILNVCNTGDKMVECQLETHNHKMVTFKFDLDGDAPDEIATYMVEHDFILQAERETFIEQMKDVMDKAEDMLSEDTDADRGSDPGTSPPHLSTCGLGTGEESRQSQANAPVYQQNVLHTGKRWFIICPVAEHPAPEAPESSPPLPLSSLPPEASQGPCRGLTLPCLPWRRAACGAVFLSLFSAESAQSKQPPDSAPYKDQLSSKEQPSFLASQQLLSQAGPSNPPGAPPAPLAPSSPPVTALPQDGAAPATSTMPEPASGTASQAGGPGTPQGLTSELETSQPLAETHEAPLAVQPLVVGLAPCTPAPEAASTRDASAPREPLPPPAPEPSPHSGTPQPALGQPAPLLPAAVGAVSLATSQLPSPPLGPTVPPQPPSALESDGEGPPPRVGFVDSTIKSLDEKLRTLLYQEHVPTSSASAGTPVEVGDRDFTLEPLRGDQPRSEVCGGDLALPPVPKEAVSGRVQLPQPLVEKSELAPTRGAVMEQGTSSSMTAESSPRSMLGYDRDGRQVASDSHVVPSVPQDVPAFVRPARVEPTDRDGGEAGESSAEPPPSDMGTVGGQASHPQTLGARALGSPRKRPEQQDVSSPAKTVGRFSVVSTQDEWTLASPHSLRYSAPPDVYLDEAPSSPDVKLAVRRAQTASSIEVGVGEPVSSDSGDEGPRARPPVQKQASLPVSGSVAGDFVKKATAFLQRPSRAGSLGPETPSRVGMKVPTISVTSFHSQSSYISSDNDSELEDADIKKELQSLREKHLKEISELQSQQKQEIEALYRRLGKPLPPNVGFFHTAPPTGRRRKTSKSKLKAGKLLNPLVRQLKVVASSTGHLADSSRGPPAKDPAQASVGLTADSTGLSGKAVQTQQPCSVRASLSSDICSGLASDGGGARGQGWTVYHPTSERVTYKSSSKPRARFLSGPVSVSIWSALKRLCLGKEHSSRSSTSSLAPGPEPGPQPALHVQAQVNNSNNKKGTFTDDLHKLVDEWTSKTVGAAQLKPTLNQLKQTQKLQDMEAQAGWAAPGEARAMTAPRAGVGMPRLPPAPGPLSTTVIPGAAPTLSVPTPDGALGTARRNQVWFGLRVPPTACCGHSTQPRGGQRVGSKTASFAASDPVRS
Chain of EPHA4 (human) (P54764 whole entry, looked up): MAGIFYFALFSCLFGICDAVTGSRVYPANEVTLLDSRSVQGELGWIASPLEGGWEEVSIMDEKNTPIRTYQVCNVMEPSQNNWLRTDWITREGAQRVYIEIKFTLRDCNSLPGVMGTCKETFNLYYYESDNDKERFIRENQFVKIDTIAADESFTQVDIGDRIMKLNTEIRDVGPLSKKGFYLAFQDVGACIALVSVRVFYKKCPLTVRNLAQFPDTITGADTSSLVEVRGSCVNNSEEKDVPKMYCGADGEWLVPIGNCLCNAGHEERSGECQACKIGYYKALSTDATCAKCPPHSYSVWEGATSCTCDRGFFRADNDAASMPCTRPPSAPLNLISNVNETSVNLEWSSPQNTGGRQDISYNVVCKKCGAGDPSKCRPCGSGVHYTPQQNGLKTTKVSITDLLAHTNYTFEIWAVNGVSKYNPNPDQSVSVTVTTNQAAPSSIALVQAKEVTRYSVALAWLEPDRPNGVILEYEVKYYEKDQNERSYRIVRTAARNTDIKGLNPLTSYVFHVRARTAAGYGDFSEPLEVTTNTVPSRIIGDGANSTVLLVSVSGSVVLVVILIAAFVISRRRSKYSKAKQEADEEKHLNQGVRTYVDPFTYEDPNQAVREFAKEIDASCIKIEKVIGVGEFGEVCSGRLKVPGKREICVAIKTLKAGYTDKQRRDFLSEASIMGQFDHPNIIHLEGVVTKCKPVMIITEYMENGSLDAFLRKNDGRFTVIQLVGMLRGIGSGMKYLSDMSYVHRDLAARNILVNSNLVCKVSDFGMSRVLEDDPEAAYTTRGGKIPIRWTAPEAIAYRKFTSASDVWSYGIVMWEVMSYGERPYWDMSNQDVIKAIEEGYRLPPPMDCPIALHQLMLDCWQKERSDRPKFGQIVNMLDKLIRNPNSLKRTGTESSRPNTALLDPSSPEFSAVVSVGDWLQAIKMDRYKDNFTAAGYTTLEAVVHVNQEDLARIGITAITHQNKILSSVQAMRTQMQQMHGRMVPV
Chain of ACVRL1 (human) (P37023 whole entry, looked up): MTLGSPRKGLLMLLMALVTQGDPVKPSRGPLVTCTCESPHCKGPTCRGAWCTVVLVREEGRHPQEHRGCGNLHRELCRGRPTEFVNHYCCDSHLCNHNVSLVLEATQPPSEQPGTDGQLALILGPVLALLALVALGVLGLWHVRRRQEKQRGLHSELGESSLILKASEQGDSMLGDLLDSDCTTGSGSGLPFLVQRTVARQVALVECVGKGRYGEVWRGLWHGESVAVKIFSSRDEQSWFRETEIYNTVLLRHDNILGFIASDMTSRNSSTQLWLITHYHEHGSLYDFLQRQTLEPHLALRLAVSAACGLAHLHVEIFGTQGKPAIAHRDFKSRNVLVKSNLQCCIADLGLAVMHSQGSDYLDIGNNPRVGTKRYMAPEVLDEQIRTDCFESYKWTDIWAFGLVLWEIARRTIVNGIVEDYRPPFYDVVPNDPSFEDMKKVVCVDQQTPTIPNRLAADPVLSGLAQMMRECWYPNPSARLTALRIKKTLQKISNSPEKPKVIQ
Chain of TAOK2 (human) (Q9UL54 whole entry, looked up): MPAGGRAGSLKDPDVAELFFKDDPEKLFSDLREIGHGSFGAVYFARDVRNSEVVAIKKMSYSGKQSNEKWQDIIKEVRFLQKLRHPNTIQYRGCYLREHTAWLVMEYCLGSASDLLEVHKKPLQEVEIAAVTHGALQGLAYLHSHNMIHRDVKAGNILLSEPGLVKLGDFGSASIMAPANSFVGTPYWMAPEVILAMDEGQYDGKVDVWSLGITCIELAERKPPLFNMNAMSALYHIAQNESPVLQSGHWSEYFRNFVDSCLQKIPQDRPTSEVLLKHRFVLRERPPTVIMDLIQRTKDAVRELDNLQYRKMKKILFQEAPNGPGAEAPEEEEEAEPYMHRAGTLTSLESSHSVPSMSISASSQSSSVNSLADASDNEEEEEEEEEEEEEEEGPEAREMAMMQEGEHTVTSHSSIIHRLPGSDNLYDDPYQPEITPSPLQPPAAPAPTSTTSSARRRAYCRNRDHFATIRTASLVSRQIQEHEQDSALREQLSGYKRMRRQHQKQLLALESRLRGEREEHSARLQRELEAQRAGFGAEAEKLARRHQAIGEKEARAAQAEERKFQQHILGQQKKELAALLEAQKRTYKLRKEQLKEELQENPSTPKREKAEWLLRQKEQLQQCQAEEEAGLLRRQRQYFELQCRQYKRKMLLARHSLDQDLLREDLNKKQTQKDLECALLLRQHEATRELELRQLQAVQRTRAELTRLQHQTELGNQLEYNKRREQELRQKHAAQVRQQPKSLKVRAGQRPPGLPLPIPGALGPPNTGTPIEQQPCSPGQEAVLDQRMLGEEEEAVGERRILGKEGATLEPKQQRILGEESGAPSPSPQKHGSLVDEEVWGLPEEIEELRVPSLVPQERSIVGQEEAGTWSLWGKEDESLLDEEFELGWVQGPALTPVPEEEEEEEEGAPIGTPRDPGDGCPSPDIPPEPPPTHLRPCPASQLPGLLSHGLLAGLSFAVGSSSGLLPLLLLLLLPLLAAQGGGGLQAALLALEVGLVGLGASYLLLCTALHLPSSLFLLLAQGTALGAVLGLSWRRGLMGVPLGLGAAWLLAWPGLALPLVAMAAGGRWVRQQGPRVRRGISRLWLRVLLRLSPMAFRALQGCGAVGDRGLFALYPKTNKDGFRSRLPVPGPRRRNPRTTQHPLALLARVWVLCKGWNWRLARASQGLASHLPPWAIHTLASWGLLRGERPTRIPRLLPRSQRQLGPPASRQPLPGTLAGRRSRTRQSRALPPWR

## CCC(=O)Nc1ccc2ncnc(Nc3cccc(Br)c3)c2c1
[1]
  residual activity: 94.3%
[2]
  residual activity: 82.8%
[3]
  residual activity: 85.1%
[4]
  residual activity: 98.9%
[5]
  residual activity: 93.6%
[6]
  residual activity: 91.2%
[7]
  residual activity: 99.8%
[8]
  residual activity: 92.5%
[9]
  residual activity: 94.3%
[10]
  residual activity: 107%
[11]
  residual activity: 91.4%
[12]
  residual activity: 84.5%
[13]
  residual activity: 103%
[14]
  residual activity: 98.9%
[15]
  residual activity: 76.1%
[16]
  residual activity: 90%
[17]
  residual activity: 92.1%
[18]
  residual activity: 89%
[19]
  residual activity: 94.8%
[20]
  residual activity: 90%
[21]
  residual activity: 57.2%
[22]
  residual activity: 108%
[23]
  residual activity: 107%
[24]
  residual activity: 89.2%
[25]
  residual activity: 102%
[26]
  residual activity: 83.9%
[27]
  residual activity: 106%
[28]
  residual activity: 97.4%
[29]
  residual activity: 93.4%
[30]
  residual activity: 103%
[31]
  residual activity: 87.2%
[32]
  residual activity: 94.1%
[33]
  residual activity: 105%
[34]
  residual activity: 94.7%
[35]
  residual activity: 104%
[36]
  residual activity: 99%
[37]
  residual activity: 97%
[38]
  residual activity: 98.2%
[39]
  residual activity: 86.5%
[40]
  residual activity: 113%
[41]
  residual activity: 99.4%

## COc1ccc2c(c[n+](C)c3c4cc5c(cc4ccc23)OCO5)c1OC
[1]
  residual activity: 103%
[3]
  residual activity: 95.6%
[4]
  residual activity: 92.7%
[5]
  residual activity: 91.5%
[6]
  residual activity: 91.7%
[7]
  residual activity: 101%
[8]
  residual activity: 103%
[9]
  residual activity: 97%
[10]
  residual activity: 101%
[11]
  residual activity: 95%
[12]
  residual activity: 101%
[13]
  residual activity: 116%
[14]
  residual activity: 99%
[15]
  residual activity: 99.8%
[16]
  residual activity: 83.3%
[17]
  residual activity: 100%
[18]
  residual activity: 89.3%
[19]
  residual activity: 94.6%
[20]
  residual activity: 87.4%
[21]
  residual activity: 94.4%
[22]
  residual activity: 97.6%
[23]
  residual activity: 98.5%
[24]
  residual activity: 103%
[25]
  residual activity: 91.9%
[26]
  residual activity: 90.8%
[27]
  residual activity: 88.3%
[28]
  residual activity: 99.2%
[29]
  residual activity: 91.7%
[30]
  residual activity: 106%
[31]
  residual activity: 86.1%
[32]
  residual activity: 95.6%
[33]
  residual activity: 95.9%
[34]
  residual activity: 96.6%
[35]
  residual activity: 100%
[36]
  residual activity: 92.3%
[37]
  residual activity: 103%
[38]
  residual activity: 105%
[39]
  residual activity: 91.7%
[40]
  residual activity: 90.4%
[41]
  residual activity: 86%

## CC(C)N(CCC(=O)c1ccc2ccccc2c1)Cc1ccccc1
[1]
  residual activity: 94.5%
[2]
  residual activity: 100%
[3]
  residual activity: 92.5%
[4]
  residual activity: 101%
[5]
  residual activity: 93.2%
[6]
  residual activity: 92.6%
[7]
  residual activity: 107%
[8]
  residual activity: 96.8%
[9]
  residual activity: 103%
[10]
  residual activity: 95.3%
[11]
  residual activity: 96.1%
[12]
  residual activity: 109%
[13]
  residual activity: 115%
[14]
  residual activity: 98.6%
[15]
  residual activity: 107%
[16]
  residual activity: 102%
[17]
  residual activity: 95.1%
[18]
  residual activity: 90.2%
[19]
  residual activity: 102%
[20]
  residual activity: 101%
[21]
  residual activity: 96.4%
[22]
  residual activity: 97%
[23]
  residual activity: 107%
[24]
  residual activity: 105%
[25]
  residual activity: 98%
[26]
  residual activity: 106%
[27]
  residual activity: 109%
[28]
  residual activity: 107%
[29]
  residual activity: 102%
[30]
  residual activity: 105%
[32]
  residual activity: 99.5%
[33]
  residual activity: 97.7%
[34]
  residual activity: 95.7%
[35]
  residual activity: 106%
[36]
  residual activity: 106%
[37]
  residual activity: 88.4%
[38]
  residual activity: 98.8%
[39]
  residual activity: 91.4%
[40]
  residual activity: 90%
[41]
  residual activity: 103%

## N#CC(C#N)=C(N)/C(C#N)=C/c1ccc(O)cc1
[1]
  residual activity: 96%
[2]
  residual activity: 94.6%
[3]
  residual activity: 103%
[4]
  residual activity: 103%
[5]
  residual activity: 92.3%
[6]
  residual activity: 98%
[7]
  residual activity: 102%
[8]
  residual activity: 91.3%
[9]
  residual activity: 101%
[10]
  residual activity: 98.4%
[11]
  residual activity: 97.3%
[12]
  residual activity: 96.5%
[13]
  residual activity: 94.7%
[14]
  residual activity: 98%
[15]
  residual activity: 102%
[16]
  residual activity: 96.7%
[17]
  residual activity: 104%
[18]
  residual activity: 99.6%
[19]
  residual activity: 100%
[20]
  residual activity: 102%
[21]
  residual activity: 84.9%
[22]
  residual activity: 99.9%
[24]
  residual activity: 95.9%
[25]
  residual activity: 91.2%
[26]
  residual activity: 93.5%
[27]
  residual activity: 99.7%
[28]
  residual activity: 88.8%
[29]
  residual activity: 88.1%
[30]
  residual activity: 97.2%
[31]
  residual activity: 96.2%
[32]
  residual activity: 100%
[33]
  residual activity: 89.4%
[34]
  residual activity: 93.3%
[35]
  residual activity: 103%
[36]
  residual activity: 97.4%
[37]
  residual activity: 85%
[38]
  residual activity: 91.1%
[39]
  residual activity: 96.8%
[40]
  residual activity: 91.1%
[41]
  residual activity: 107%

## O=S(=O)(c1cccc2cnccc12)N1CCCNCC1
[1]
  residual activity: 98.5%
[2]
  residual activity: 80.2%
[3]
  residual activity: 117%
[4]
  residual activity: 96.8%
[5]
  residual activity: 85.3%
[6]
  residual activity: 88.3%
[7]
  residual activity: 97.6%
[8]
  residual activity: 86.4%
[9]
  residual activity: 91.7%
[10]
  residual activity: 106%
[11]
  residual activity: 87.3%
[12]
  residual activity: 96.3%
[13]
  residual activity: 109%
[14]
  residual activity: 97.9%
[15]
  residual activity: 77.8%
[16]
  residual activity: 62.1%
[17]
  residual activity: 101%
[18]
  residual activity: 36.3%
[19]
  residual activity: 95.8%
[20]
  residual activity: 95.8%
[21]
  residual activity: 96.1%
[22]
  residual activity: 100%
[23]
  residual activity: 99.3%
[24]
  residual activity: 99.4%
[25]
  residual activity: 95.5%
[26]
  residual activity: 88.3%
[27]
  residual activity: 81.8%
[28]
  residual activity: 111%
[29]
  residual activity: 107%
[30]
  residual activity: 114%
[31]
  residual activity: 79.9%
[32]
  residual activity: 86%
[33]
  residual activity: 93.1%
[34]
  residual activity: 90.7%
[35]
  residual activity: 96.8%
[36]
  residual activity: 90.6%
[39]
  residual activity: 76.6%
[40]
  residual activity: 98.5%
[41]
  residual activity: 97.5%

From the kinase profiling compilation of Christmann-Franck et al. (2016)
